The target in assay [1] is T1, NAD-dependent protein deacetylase sirtuin-1 (Homo sapiens) (UniProt Q96EB6).
T1 sequence (whole entry): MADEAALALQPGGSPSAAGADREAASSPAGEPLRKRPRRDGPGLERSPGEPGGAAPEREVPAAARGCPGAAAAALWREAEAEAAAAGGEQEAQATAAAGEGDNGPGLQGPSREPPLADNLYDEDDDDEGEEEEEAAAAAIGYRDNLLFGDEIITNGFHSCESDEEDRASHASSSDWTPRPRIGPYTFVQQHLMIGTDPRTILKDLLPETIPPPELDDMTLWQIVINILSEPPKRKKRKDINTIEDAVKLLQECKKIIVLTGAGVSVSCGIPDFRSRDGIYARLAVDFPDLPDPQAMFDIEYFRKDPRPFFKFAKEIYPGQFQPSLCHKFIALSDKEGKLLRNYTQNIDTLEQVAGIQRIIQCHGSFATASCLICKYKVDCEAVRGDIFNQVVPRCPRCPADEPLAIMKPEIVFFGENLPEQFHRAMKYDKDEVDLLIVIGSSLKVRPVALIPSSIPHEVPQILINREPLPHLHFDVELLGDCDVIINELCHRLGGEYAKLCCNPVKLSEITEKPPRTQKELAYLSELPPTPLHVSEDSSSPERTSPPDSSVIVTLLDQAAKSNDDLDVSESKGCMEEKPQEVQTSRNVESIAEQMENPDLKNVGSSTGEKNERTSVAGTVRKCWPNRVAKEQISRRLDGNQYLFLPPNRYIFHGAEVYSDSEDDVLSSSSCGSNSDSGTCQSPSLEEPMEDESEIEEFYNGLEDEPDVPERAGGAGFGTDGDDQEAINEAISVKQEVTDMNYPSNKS
The assay is described as follows: Substrate activity at human N-terminal His-tagged SIRT1 (183 to 664 residues) expressed in Escherichia coli at 5 uM measured after 2 hrs in presence of NAD+ and trypsin by fluorescence assay.

The target in assay [2] is T2, NAD-dependent protein deacetylase sirtuin-3, mitochondrial (Homo sapiens) (UniProt Q9NTG7).
T2 sequence (whole entry): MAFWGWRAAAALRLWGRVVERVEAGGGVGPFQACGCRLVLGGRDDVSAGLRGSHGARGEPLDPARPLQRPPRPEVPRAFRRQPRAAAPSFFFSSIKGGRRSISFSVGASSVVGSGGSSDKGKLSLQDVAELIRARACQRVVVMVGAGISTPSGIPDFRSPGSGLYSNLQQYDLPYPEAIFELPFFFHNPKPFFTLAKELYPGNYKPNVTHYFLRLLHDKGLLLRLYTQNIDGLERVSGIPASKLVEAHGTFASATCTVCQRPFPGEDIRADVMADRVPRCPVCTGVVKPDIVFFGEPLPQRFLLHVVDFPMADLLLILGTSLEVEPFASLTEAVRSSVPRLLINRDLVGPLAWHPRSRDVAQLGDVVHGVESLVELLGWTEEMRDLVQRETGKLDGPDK
The assay is described as follows: Substrate activity at human N-terminal His-tagged SIRT3 (122 to 391 residues) expressed in Escherichia coli at 0.5 uM measured after 2 hrs in presence of NAD+ and trypsin by fluorescence assay.

Assay [3] has as its target T3, NAD-dependent protein deacetylase sirtuin-7 (Homo sapiens) (UniProt Q9NRC8).
T3 sequence (whole entry): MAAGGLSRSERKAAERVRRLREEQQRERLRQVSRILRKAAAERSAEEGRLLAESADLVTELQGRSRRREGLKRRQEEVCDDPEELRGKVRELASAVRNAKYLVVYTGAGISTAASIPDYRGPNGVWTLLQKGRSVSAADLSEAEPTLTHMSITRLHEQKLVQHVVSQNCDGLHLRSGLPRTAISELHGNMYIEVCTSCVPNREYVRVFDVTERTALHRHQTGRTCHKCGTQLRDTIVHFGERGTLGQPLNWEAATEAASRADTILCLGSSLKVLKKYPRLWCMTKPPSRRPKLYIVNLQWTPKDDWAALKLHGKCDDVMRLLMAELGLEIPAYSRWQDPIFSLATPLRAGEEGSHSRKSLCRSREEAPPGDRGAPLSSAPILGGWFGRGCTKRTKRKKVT
The assay is described as follows: Substrate activity at human N-terminal His-tagged SIRT7 (68 to 354 residues) expressed in Escherichia coli at 5 uM measured after 2 hrs in presence of NAD+ and trypsin by fluorescence assay.

Assay [4] has as its target T3, NAD-dependent protein deacetylase sirtuin-7 (Homo sapiens). The assay is described as follows: Substrate activity at human N-terminal His-tagged SIRT7 (68 to 354 residues) expressed in Escherichia coli at 0.5 uM measured after 2 hrs in presence of NAD+ and trypsin by fluorescence assay.
Assay [5] deals with NAD-dependent protein deacylase sirtuin-5, mitochondrial (Homo sapiens) (UniProt Q9NXA8). The assay is described as follows: Substrate activity at human N-terminal His-tagged SIRT5 (34 to 302 residues) expressed in Escherichia coli at 0.5 uM measured after 2 hrs in presence of NAD+ and trypsin by fluorescence assay.
Chain of NAD-dependent protein deacylase sirtuin-5, mitochondrial (Homo sapiens) (Q9NXA8 37-310 limits assumed): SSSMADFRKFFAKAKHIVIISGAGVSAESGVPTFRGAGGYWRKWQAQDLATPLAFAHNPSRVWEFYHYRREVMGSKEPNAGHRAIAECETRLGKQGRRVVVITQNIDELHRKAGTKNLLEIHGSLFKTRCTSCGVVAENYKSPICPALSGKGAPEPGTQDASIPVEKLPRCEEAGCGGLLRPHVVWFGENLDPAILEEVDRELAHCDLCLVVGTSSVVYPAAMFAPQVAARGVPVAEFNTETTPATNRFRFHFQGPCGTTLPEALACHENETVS
For assay [6] the target is unchanged. The assay is described as follows: Substrate activity at human N-terminal His-tagged SIRT5 (34 to 302 residues) expressed in Escherichia coli at 5 uM measured after 2 hrs in presence of NAD+ and trypsin by fluorescence assay.
The target of assay [7] is T4, NAD-dependent protein deacetylase sirtuin-2 (Homo sapiens) (UniProt Q8IXJ6).
T4 sequence (whole entry): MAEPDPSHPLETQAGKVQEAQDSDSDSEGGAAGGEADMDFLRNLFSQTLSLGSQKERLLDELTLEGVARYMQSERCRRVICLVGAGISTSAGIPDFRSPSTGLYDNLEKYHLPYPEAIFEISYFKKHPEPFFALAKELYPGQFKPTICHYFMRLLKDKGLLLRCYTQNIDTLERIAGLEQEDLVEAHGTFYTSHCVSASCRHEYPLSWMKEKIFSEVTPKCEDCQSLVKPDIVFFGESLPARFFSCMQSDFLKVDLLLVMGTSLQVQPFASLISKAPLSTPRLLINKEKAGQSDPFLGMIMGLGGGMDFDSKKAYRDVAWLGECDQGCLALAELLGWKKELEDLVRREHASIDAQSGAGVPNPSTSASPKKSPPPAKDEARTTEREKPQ
The assay is described as follows: Substrate activity at human N-terminal His-tagged SIRT2 (56 to 356 residues) expressed in Escherichia coli at 0.5 uM measured after 2 hrs in presence of NAD+ and trypsin by fluorescence assay.

Assay [8] addresses NAD-dependent protein deacylase sirtuin-6 (Homo sapiens) (UniProt Q8N6T7). The assay is described as follows: Substrate activity at human N-terminal His-tagged SIRT6 (1 to 355 residues) expressed in Escherichia coli at 50 uM measured after 2 hrs in presence of NAD+ and trypsin by fluorescence assay.
For assay [9] the target is unchanged. The assay is described as follows: Substrate activity at human N-terminal His-tagged SIRT6 (1 to 355 residues) expressed in Escherichia coli at 5 uM measured after 2 hrs in presence of NAD+ and trypsin by fluorescence assay.
Assay [10] has as its target T2, NAD-dependent protein deacetylase sirtuin-3, mitochondrial (Homo sapiens). The assay is described as follows: Substrate activity at human N-terminal His-tagged SIRT3 (122 to 391 residues) expressed in Escherichia coli at 50 uM measured after 2 hrs in presence of NAD+ and trypsin by fluorescence assay.
In assay [11] the target is T1, NAD-dependent protein deacetylase sirtuin-1 (Homo sapiens). The assay is described as follows: Substrate activity at human N-terminal His-tagged SIRT1 (183 to 664 residues) expressed in Escherichia coli at 50 uM measured after 2 hrs in presence of NAD+ and trypsin by fluorescence assay.
Assay [12] has the same target. The assay is described as follows: Substrate activity at human N-terminal His-tagged SIRT1 (183 to 664 residues) expressed in Escherichia coli at 0.5 uM measured after 2 hrs in presence of NAD+ and trypsin by fluorescence assay.
For assay [13], the target named is T2, NAD-dependent protein deacetylase sirtuin-3, mitochondrial (Homo sapiens). The assay is described as follows: Substrate activity at human N-terminal His-tagged SIRT3 (122 to 391 residues) expressed in Escherichia coli at 5 uM measured after 2 hrs in presence of NAD+ and trypsin by fluorescence assay.
The target of assay [14] is NAD-dependent protein deacylase sirtuin-5, mitochondrial (Homo sapiens) (UniProt Q9NXA8). The assay is described as follows: Substrate activity at human N-terminal His-tagged SIRT5 (34 to 302 residues) expressed in Escherichia coli at 5 uM measured after 1 hr in presence of NAD+ and trypsin by fluorescence assay.
Assay [15] addresses NAD-dependent protein deacylase sirtuin-6 (Homo sapiens) (UniProt Q8N6T7). The assay is described as follows: Substrate activity at human N-terminal His-tagged SIRT6 (1 to 355 residues) expressed in Escherichia coli at 0.5 uM measured after 2 hrs in presence of NAD+ and trypsin by fluorescence assay.
Assay [16] addresses T4, NAD-dependent protein deacetylase sirtuin-2 (Homo sapiens). The assay is described as follows: Substrate activity at human N-terminal His-tagged SIRT2 (56 to 356 residues) expressed in Escherichia coli at 5 uM measured after 2 hrs in presence of NAD+ and trypsin by fluorescence assay.
Assay [17] concerns the target NAD-dependent protein deacylase sirtuin-5, mitochondrial (Homo sapiens) (UniProt Q9NXA8). The assay is described as follows: Substrate activity at human N-terminal His-tagged SIRT5 (34 to 302 residues) expressed in Escherichia coli at 50 uM measured after 2 hrs in presence of NAD+ and trypsin by fluorescence assay.
The target of assay [18] is T3, NAD-dependent protein deacetylase sirtuin-7 (Homo sapiens). The assay is described as follows: Substrate activity at human N-terminal His-tagged SIRT7 (68 to 354 residues) expressed in Escherichia coli at 50 uM measured after 2 hrs in presence of NAD+ and trypsin by fluorescence assay.
In assay [19] the target is T4, NAD-dependent protein deacetylase sirtuin-2 (Homo sapiens). The assay is described as follows: Substrate activity at human N-terminal His-tagged SIRT2 (56 to 356 residues) expressed in Escherichia coli at 50 uM measured after 2 hrs in presence of NAD+ and trypsin by fluorescence assay.

This passage reports Activity results from ChEMBL document CHEMBL4680222, “Sensitive fluorogenic substrates for sirtuin deacylase inhibitor discovery” (Eur J Med Chem, 2020).

The source made the active and inactive calls. The calls are words filed in the database; no cut-off is given here. *1 amine or outer side, *2 acyl side, *3 side chain or, on linkers, in order; H or OH if unused. Where a SMILES comes first, the peptide text is derived from it. The star is where a group is joined. AMC = Cc1cc(=O)oc2cc(N*)ccc12; Suc = O=C(CCC(=O)[*:2])[*:1]

Chain of NAD-dependent protein deacylase sirtuin-6 (Homo sapiens) (Q8N6T7 whole entry, the tested form may be a part): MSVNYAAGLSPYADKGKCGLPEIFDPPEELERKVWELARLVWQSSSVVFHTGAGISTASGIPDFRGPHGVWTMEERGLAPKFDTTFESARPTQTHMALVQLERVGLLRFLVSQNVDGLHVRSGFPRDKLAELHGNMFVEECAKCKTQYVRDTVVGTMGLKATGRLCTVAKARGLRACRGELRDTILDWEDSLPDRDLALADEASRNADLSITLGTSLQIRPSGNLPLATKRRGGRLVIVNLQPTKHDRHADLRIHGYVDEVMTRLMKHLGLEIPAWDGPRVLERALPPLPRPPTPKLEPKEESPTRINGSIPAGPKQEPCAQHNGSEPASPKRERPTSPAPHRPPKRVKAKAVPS

For `CC(=O)N[C@@H](Cc1cnc[nH]1)C(=O)N[C@@H](Cc1ccccc1)C(=O)N[C@@H](CO)C(=O)N[C@@H](CCCCNC(=O)CCC(=O)O)C(=O)Nc1ccc2c(C)cc(=O)oc2c1` (Ac-HFSK(Suc)-{AMC}), the Activity in [1] was 0.36 RFU; in assay [2], 0.49 RFU; in assay [3], 1.36 RFU; in assay [4], 0.28 RFU; in assay [5] it was 1.15 RFU; in assay [6] it was 8.98 RFU. The Activity was found to be 0.16 RFU in assay [7]; 0.51 RFU in assay [8]; 0.32 RFU in assay [9]; 0.89 RFU in assay [10]; 0.69 RFU in assay [11]; 0.16 RFU in [12]. In addition, the Activity in [13] is 0.55 RFU; in [15], 0.41 RFU; in assay [16], 0.21 RFU; in assay [17] it was 0.71 RFU; in assay [18], 0.51 RFU; in assay [19] it was 1.03 RFU. Also, in [14], the result was Active.
`CC(=O)N[C@@H](CC(C)C)C(=O)NCC(=O)N[C@@H](CO)C(=O)N[C@@H](CCCCNC(=O)CCC(=O)O)C(=O)Nc1ccc2c(C)cc(=O)oc2c1` (Ac-LGSK(Suc)-{AMC}): the Activity in assay [1] stood at 0.35 RFU; in [2] it was 0.5 RFU; in assay [3] it was 0.32 RFU; in assay [4], 0.28 RFU; in [5], 3.07 RFU; in [6], 25.1 RFU. Also, the Activity in assay [7] was 0.2 RFU; in assay [8], 1.14 RFU; in assay [9] it was 0.37 RFU; in [10], 1.42 RFU; in [11], 0.98 RFU; in assay [12] it was 0.2 RFU. In addition, the Activity in assay [13] worked out at 0.56 RFU; in assay [15], 0.41 RFU; in assay [16], 0.21 RFU; in assay [17] it was 1.41 RFU; in assay [18], 1.14 RFU; in assay [19], 0.9 RFU. Moreover, the result in assay [14] was Active.
As for `CC(=O)N[C@@H](CO)C(=O)N[C@@H](CC(C)C)C(=O)NCC(=O)N[C@@H](CCCCNC(=O)CCC(=O)O)C(=O)Nc1ccc2c(C)cc(=O)oc2c1` (Ac-SLGK(Suc)-{AMC}), the Activity in [1] stood at 0.44 RFU; in [2] it was 0.48 RFU; in [3], 0.41 RFU; in [4] it was 0.3 RFU; in [5] it was 3.36 RFU; in assay [6] it was 21.5 RFU. For the same compound, the Activity in [7] came out at 0.24 RFU; in assay [8], 1.18 RFU; in assay [9], 0.37 RFU; in assay [10], 1.32 RFU; in [11] it was 1.05 RFU; in assay [12], 0.24 RFU. For the same compound, the Activity in assay [13] was 0.53 RFU; in assay [15] it was 0.38 RFU; in [16], 0.25 RFU; in assay [17], 1.5 RFU; in [18], 1.18 RFU; in assay [19], 1.03 RFU. Besides, the result in [14] was Active.
Regarding `CC(=O)NCCCC[C@H](NC(=O)[C@H](CC(C)C)NC(=O)[C@H](CCCCN)NC(=O)[C@H](Cc1ccc(O)cc1)NC(C)=O)C(=O)Nc1ccc2c(C)cc(=O)oc2c1` (Ac-YKLK(Ac)-{AMC}), the Activity in assay [1] came to 6.39 RFU; in assay [2], 0.54 RFU; in assay [3], 1.09 RFU; in assay [4] it was 0.31 RFU; in assay [5] it was 0.24 RFU; in [6], 0.31 RFU. Also, the Activity in assay [7] was found to be 0.52 RFU; in [8] it was 0.97 RFU; in assay [9], 0.39 RFU; in assay [10], 9.82 RFU; in assay [11] it was 33 RFU; in assay [12], 0.52 RFU. Further, the Activity is 2.28 RFU in [13]; 0.5 RFU in assay [15]; 3.84 RFU in [16]; 1.29 RFU in assay [17]; 0.97 RFU in [18]; 25.2 RFU in [19].
